± gives the expanded uncertainty stated by the source.
Assay: xn = mol fraction of the nth substance listed
Conditions: 102 kPa, Liquid; for viscosity: Concentric cylinders viscometry; for mass density: Vibrating tube method

CCCCn1cc[n+](C)c1.CS(=O)(=O)[O-] [1-butyl-3-methylimidazolium methanesulfonate] + CCCCn1cc[n+](C)c1.[Cl-]
Conditions | mass density [kg/m3] | viscosity [mPa·s]
323.15 K, x1 = 0.3 | 1098.9 ± 2.8 | 388.2 ± 40
323.15 K, x1 = 0.4 | 1106.3 ± 2.8 | 365.5 ± 38
323.15 K, x1 = 0.5 | 1116.6 ± 2.8 | 267.1 ± 29
328.15 K, x1 = 0.1 | 1076.7 ± 3 | 490.5 ± 52
328.15 K, x1 = 0.2 | 1086.1 ± 2.9 | 428.3 ± 46
328.15 K, x1 = 0.3 | 1096.1 ± 2.9 | 278.2 ± 30
328.15 K, x1 = 0.4 | 1103.4 ± 2.8 | 261.8 ± 27
328.15 K, x1 = 0.5 | 1113.7 ± 2.8 | 195.6 ± 20
333.15 K, x1 = 0.1 | 1074 ± 2.9 | 346.3 ± 36
333.15 K, x1 = 0.2 | 1083.4 ± 2.9 | 304.6 ± 32
333.15 K, x1 = 0.3 | 1093.3 ± 2.8 | 204.2 ± 21
333.15 K, x1 = 0.4 | 1100.6 ± 2.8 | 192.2 ± 20
333.15 K, x1 = 0.5 | 1110.9 ± 2.8 | 146.5 ± 15
333.15 K, x1 = 0.6 | 1119.1 ± 2.7 | 128 ± 13
338.15 K, x1 = 0.1 | 1071.4 ± 2.9 | 250.7 ± 26
338.15 K, x1 = 0.2 | 1080.7 ± 2.9 | 222 ± 23
338.15 K, x1 = 0.3 | 1090.6 ± 2.8 | 153.2 ± 16
338.15 K, x1 = 0.4 | 1097.9 ± 2.8 | 144.3 ± 15
338.15 K, x1 = 0.5 | 1108.1 ± 2.8 | 112.1 ± 12
338.15 K, x1 = 0.6 | 1116.3 ± 2.7 | 98.76 ± 10
338.15 K, x1 = 0.7 | 1124.3 ± 2.7 | 82.97 ± 8.5
343.15 K, x1 = 0.1 | 1068.7 ± 2.9 | 185.6 ± 19
343.15 K, x1 = 0.2 | 1078 ± 2.9 | 165.4 ± 17
343.15 K, x1 = 0.3 | 1087.9 ± 2.8 | 117.2 ± 12
343.15 K, x1 = 0.4 | 1095.2 ± 2.8 | 110.5 ± 11
343.15 K, x1 = 0.5 | 1105.3 ± 2.8 | 87.31 ± 8.9
343.15 K, x1 = 0.6 | 1113.5 ± 2.7 | 77.62 ± 7.9
343.15 K, x1 = 0.7 | 1121.5 ± 2.7 | 65.89 ± 6.7
343.15 K, x1 = 0.8 | 1129.7 ± 2.6 | 56.84 ± 5.8
348.15 K, x1 = 0.1 | 1066.1 ± 2.9 | 140.3 ± 14
348.15 K, x1 = 0.2 | 1075.4 ± 2.9 | 125.8 ± 13
348.15 K, x1 = 0.3 | 1085.2 ± 2.8 | 91.36 ± 9.4
348.15 K, x1 = 0.4 | 1092.5 ± 2.8 | 86.21 ± 8.8
348.15 K, x1 = 0.5 | 1102.6 ± 2.8 | 69.19 ± 7
348.15 K, x1 = 0.6 | 1110.7 ± 2.7 | 62.01 ± 6.3
348.15 K, x1 = 0.7 | 1118.6 ± 2.7 | 53.15 ± 5.4
348.15 K, x1 = 0.8 | 1126.8 ± 2.6 | 46.31 ± 4.7
348.15 K, x1 = 0.9 | 1134.4 ± 2.6 | 39.65 ± 4
353.15 K, x1 = 0.1 | 1063.5 ± 2.9 | 108.1 ± 11
353.15 K, x1 = 0.2 | 1072.8 ± 2.9 | 97.5 ± 10
353.15 K, x1 = 0.3 | 1082.5 ± 2.8 | 72.39 ± 7.4
353.15 K, x1 = 0.4 | 1089.7 ± 2.8 | 68.4 ± 6.9
353.15 K, x1 = 0.5 | 1099.8 ± 2.7 | 55.7 ± 5.7
353.15 K, x1 = 0.6 | 1107.9 ± 2.7 | 50.28 ± 5.1
353.15 K, x1 = 0.7 | 1115.7 ± 2.7 | 43.48 ± 4.4
353.15 K, x1 = 0.8 | 1123.9 ± 2.6 | 38.24 ± 3.9
353.15 K, x1 = 0.9 | 1131.4 ± 2.6 | 33.04 ± 3.4
358.15 K, x1 = 0.1 | 1060.9 ± 2.9 | 84.67 ± 8.6
358.15 K, x1 = 0.2 | 1070.1 ± 2.9 | 76.85 ± 7.8
358.15 K, x1 = 0.3 | 1079.8 ± 2.8 | 58.23 ± 5.9
358.15 K, x1 = 0.4 | 1086.9 ± 2.8 | 55.11 ± 5.6
358.15 K, x1 = 0.5 | 1097 ± 2.7 | 45.47 ± 4.6
358.15 K, x1 = 0.6 | 1105 ± 2.7 | 41.33 ± 4.2
358.15 K, x1 = 0.7 | 1112.8 ± 2.6 | 36.03 ± 3.6
358.15 K, x1 = 0.8 | 1120.9 ± 2.6 | 31.96 ± 3.2
358.15 K, x1 = 0.9 | 1128.4 ± 2.6 | 27.85 ± 2.8
363.15 K, x1 = 0.1 | 1058.2 ± 2.9 | 67.42 ± 6.8
363.15 K, x1 = 0.2 | 1067.3 ± 2.8 | 61.54 ± 6.3
363.15 K, x1 = 0.3 | 1077 ± 2.8 | 47.51 ± 4.8
363.15 K, x1 = 0.4 | 1084.1 ± 2.7 | 45.04 ± 4.6
363.15 K, x1 = 0.5 | 1094.1 ± 2.7 | 37.62 ± 3.8
363.15 K, x1 = 0.6 | 1102.1 ± 2.7 | 34.41 ± 3.5
363.15 K, x1 = 0.7 | 1109.9 ± 2.6 | 30.22 ± 3.1
363.15 K, x1 = 0.8 | 1117.9 ± 2.6 | 27.02 ± 2.7
363.15 K, x1 = 0.9 | 1125.3 ± 2.6 | 23.72 ± 2.4

CCCCn1cc[n+](C)c1.O=[N+]([O-])[O-] [1-butyl-3-methylimidazolium nitrate] + CCCCn1cc[n+](C)c1.[Cl-]
Conditions | mass density [kg/m3] | viscosity [mPa·s]
298.15 K, x1 = 0.8 | 1139.9 ± 2.9 | 373.6 ± 40
303.15 K, x1 = 0.8 | 1136.8 ± 2.9 | 266.4 ± 28
308.15 K, x1 = 0.8 | 1133.7 ± 2.9 | 194.9 ± 21
313.15 K, x1 = 0.5 | 1109.6 ± 2.9 | 365.1 ± 39
313.15 K, x1 = 0.6 | 1116.9 ± 2.9 | 275.4 ± 29
313.15 K, x1 = 0.8 | 1130.6 ± 2.9 | 146 ± 16
318.15 K, x1 = 0.2 | – | 721.3 ± 77
318.15 K, x1 = 0.5 | 1106.6 ± 2.9 | 262.7 ± 28
318.15 K, x1 = 0.6 | 1113.9 ± 2.9 | 201.5 ± 21
318.15 K, x1 = 0.8 | 1127.6 ± 2.9 | 111.7 ± 12
323.15 K, x1 = 0.2 | – | 495.6 ± 53
323.15 K, x1 = 0.4 | 1097.9 ± 2.9 | 259.8 ± 28
323.15 K, x1 = 0.5 | 1103.7 ± 2.9 | 193.7 ± 20
323.15 K, x1 = 0.6 | 1110.9 ± 2.9 | 150.8 ± 16
323.15 K, x1 = 0.8 | 1124.6 ± 2.9 | 87.1 ± 9.1
328.15 K, x1 = 0.2 | 1080.2 ± 2.9 | 349.9 ± 37
328.15 K, x1 = 0.4 | 1095 ± 2.9 | 191.3 ± 20
328.15 K, x1 = 0.5 | 1100.8 ± 2.9 | 145.9 ± 15
328.15 K, x1 = 0.6 | 1107.9 ± 2.9 | 115.2 ± 12
328.15 K, x1 = 0.8 | 1121.6 ± 2.8 | 69.09 ± 7.2
333.15 K, x1 = 0.1 | 1070.3 ± 2.9 | 378.4 ± 41
333.15 K, x1 = 0.2 | 1077.3 ± 2.9 | 253.4 ± 27
333.15 K, x1 = 0.4 | 1092 ± 2.9 | 144 ± 15
333.15 K, x1 = 0.5 | 1097.9 ± 2.9 | 112 ± 12
333.15 K, x1 = 0.6 | 1104.9 ± 2.9 | 89.66 ± 9.2
333.15 K, x1 = 0.8 | 1118.6 ± 2.8 | 55.68 ± 5.8
338.15 K, x1 = 0.1 | 1067.5 ± 2.9 | 271.8 ± 29
338.15 K, x1 = 0.2 | 1074.4 ± 2.9 | 187.6 ± 20
338.15 K, x1 = 0.4 | 1089.1 ± 2.9 | 110.6 ± 12
338.15 K, x1 = 0.5 | 1095 ± 2.9 | 87.65 ± 9
338.15 K, x1 = 0.6 | 1101.9 ± 2.8 | 71.02 ± 7.3
338.15 K, x1 = 0.8 | 1115.7 ± 2.8 | 45.53 ± 4.7
343.15 K, x1 = 0.1 | 1064.8 ± 2.9 | 199.9 ± 21
343.15 K, x1 = 0.2 | 1071.6 ± 2.9 | 141.9 ± 15
343.15 K, x1 = 0.4 | 1086.2 ± 2.9 | 86.47 ± 9
343.15 K, x1 = 0.5 | 1092.1 ± 2.8 | 69.7 ± 7.1
343.15 K, x1 = 0.6 | 1099 ± 2.8 | 57.14 ± 5.8
343.15 K, x1 = 0.8 | 1112.7 ± 2.8 | 37.72 ± 3.9
348.15 K, x1 = 0.1 | 1062.1 ± 2.9 | 150.1 ± 16
348.15 K, x1 = 0.2 | 1068.8 ± 2.9 | 109.3 ± 11
348.15 K, x1 = 0.4 | 1083.3 ± 2.9 | 68.73 ± 7.1
348.15 K, x1 = 0.5 | 1089.2 ± 2.8 | 56.25 ± 5.8
348.15 K, x1 = 0.6 | 1096.1 ± 2.8 | 46.63 ± 4.8
348.15 K, x1 = 0.8 | 1109.7 ± 2.8 | 31.62 ± 3.2
353.15 K, x1 = 0.1 | 1059.3 ± 2.9 | 115 ± 12
353.15 K, x1 = 0.2 | 1065.9 ± 2.9 | 85.68 ± 8.8
353.15 K, x1 = 0.4 | 1080.5 ± 2.8 | 55.46 ± 5.7
353.15 K, x1 = 0.5 | 1086.4 ± 2.8 | 46.03 ± 4.7
353.15 K, x1 = 0.6 | 1093.2 ± 2.8 | 38.55 ± 3.9
353.15 K, x1 = 0.8 | 1106.8 ± 2.8 | 26.81 ± 2.7
358.15 K, x1 = 0.1 | 1056.6 ± 2.9 | 89.62 ± 9.3
358.15 K, x1 = 0.2 | 1063.1 ± 2.9 | 68.25 ± 7
358.15 K, x1 = 0.4 | 1077.6 ± 2.8 | 45.37 ± 4.7
358.15 K, x1 = 0.5 | 1083.5 ± 2.8 | 38.16 ± 3.9
358.15 K, x1 = 0.6 | 1090.3 ± 2.8 | 32.27 ± 3.3
358.15 K, x1 = 0.8 | 1103.8 ± 2.8 | 22.96 ± 2.3
363.15 K, x1 = 0.1 | 1053.8 ± 2.9 | 71.03 ± 7.3
363.15 K, x1 = 0.2 | 1060.4 ± 2.9 | 55.17 ± 5.6
363.15 K, x1 = 0.4 | 1074.8 ± 2.8 | 37.6 ± 3.9
363.15 K, x1 = 0.5 | 1080.6 ± 2.8 | 32.02 ± 3.3
363.15 K, x1 = 0.6 | 1087.4 ± 2.8 | 27.32 ± 2.8
363.15 K, x1 = 0.8 | 1100.9 ± 2.8 | 19.87 ± 2
